The text below walks through data of patent US20240058315A1, “Pyridine and Pyrazine derivative for the Treatment of CF, COPD, and Bronchiectasis” (NOVARTIS AG, priority 2019, published 2024).

Structures are written as SMILES.

Chain of ΔF508-CFTR (P13569 other isoform, or with tags, fused parts or gaps del F508-F508): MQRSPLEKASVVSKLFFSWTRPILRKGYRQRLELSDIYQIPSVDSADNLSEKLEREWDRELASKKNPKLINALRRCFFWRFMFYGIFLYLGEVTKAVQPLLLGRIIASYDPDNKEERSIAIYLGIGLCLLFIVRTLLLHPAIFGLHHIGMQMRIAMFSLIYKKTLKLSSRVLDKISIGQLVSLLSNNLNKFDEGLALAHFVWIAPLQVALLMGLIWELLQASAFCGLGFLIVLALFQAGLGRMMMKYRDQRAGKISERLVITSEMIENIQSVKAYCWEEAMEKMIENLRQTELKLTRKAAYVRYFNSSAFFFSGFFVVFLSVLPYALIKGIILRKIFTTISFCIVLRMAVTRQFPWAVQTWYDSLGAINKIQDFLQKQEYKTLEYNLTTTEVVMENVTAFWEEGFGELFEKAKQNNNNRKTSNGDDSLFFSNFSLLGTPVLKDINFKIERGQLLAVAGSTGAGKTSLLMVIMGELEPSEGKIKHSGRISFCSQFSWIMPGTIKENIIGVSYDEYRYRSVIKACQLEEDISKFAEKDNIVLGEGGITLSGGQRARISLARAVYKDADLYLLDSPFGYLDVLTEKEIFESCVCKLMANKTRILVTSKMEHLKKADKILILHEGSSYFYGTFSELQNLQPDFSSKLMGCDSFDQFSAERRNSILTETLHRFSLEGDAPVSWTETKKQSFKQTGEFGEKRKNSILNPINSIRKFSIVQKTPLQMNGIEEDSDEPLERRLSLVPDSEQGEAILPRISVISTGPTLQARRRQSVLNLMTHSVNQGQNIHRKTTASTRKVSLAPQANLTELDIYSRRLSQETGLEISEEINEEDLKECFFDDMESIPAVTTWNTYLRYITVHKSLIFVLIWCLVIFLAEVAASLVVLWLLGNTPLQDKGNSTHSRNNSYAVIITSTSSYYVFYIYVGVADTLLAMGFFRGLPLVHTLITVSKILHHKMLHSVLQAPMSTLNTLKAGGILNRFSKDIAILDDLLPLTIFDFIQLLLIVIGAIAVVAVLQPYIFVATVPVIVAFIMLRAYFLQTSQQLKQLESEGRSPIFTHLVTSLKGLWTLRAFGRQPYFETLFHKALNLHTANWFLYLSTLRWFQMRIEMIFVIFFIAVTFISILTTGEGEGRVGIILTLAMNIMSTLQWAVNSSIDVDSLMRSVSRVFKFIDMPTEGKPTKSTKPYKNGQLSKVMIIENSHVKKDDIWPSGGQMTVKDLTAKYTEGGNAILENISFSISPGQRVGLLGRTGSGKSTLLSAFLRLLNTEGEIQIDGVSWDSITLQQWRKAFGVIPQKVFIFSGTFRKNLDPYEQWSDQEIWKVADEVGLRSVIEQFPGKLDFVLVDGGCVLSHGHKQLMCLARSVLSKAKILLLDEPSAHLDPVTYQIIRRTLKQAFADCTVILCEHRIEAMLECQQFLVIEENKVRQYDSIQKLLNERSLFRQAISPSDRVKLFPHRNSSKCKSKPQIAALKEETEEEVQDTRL

The target in the experiment is ΔF508-CFTR (Homo sapiens (Human), UniProt P13569, DEL508-508). The experiment is described as follows: CFTR potentiator assays (membrane potential, IonWorks Quattro, Ussing chamber ion transport). It counts as cell-based. As to conditions: CFTR EC50 in 'the data measurements described above'; which of the potentiator assays is not stated. An excerpt:
CFTR activity can be quantified by measuring the transmembrane potential. The means for measuring the transmembrane potential in a biological system can employ a number of methods including electrophysiological and optical fluorescence-based membrane potential assays.
The optical membrane potential assay utilises a negatively charged potentiometric dye, such as the FLIPR membrane potential dye (FMP) (see Baxter D F, Kirk M, Garcia A F, Raimondi A, Holmqvist M H, Flint K K, Bojanic D, Distefano P S, Curtis R, Xie Y. ‘A novel membrane potential-sensitive fluorescent dye improves cell-based assays for ion channels.’ J Biomol Screen. 2002 February; 7(1):79-85) which when extracellular is bound to a quenching agent.
Upon cellular depolarisation the negatively charged dye redistributes to the intracellular compartment, unbinding from the membrane impermeant quench agent, yielding an increase in fluorescence. This change in fluorescence is proportional to the change in transmembrane potential which can result from the activity of CFTR. The changes in fluorescence can be monitored in real time by an appropriately equipped fluorescence detector such as the FLIPR (fluorometric imaging plate reader) in 96 or 384-well microtitre plates.
Chinese hamster ovary (CHO) cells stably expressing the AF508-CFTR channel were used for membrane potential experiments. Cells were maintained at 37° C. in 5% v/v CO2 at 100% humidity in Modified Eagles medium (MEM) supplemented with 8% v/v foetal calf serum, 100 μg/ml methotrexate and 100 U/ml penicillin/streptomycin. Cells were grown in 225 cm^2 tissue culture flasks. For membrane potential assays cells were seeded into 96 well plates at 40,000 cells per well, allowed to adhere and then maintained at 26° C. for 48 h to facilitate channel insertion.
The membrane potential screening assay utilised a low chloride ion containing extracellular solution (˜5 mM) combined with a double addition protocol. The first addition was of buffer with or without test compound followed 5 minutes later by an addition of forskolin (1-20 μM)—this protocol favours maximum chloride efflux in response to ΔF508-CFTR activation. The ΔF508-CFTR mediated chloride ion efflux leads to a membrane depolarisation which is optically monitored by the FMP dye.
Low chloride extracellular (mM): 120 Na-gluconate, 1.2 CaCl2), 3.3 KH2PO4, 0.8 K2HPO4, 1.2 MgCl2, 10.0 D-glucose, 20.0 HEPES, pH 7.4 with NaOH FMP dye: made up as per manufacturers' instructions in low chloride extracellular solution detailed above, at 10× final concentration, and stored as 1 mL aliquots at −20° C.
CFTR activity can also be quantified electrophysiologically using the whole-cell configuration of the patch clamp technique (Hamill et al Pflugers Archive 1981). This assay directly measures the currents associated with chloride flow through CFTR channels whilst either maintaining or adjusting the transmembrane voltage. This assay can use either single glass micropipettes or parallel planar arrays to measure CFTR activity from native or recombinant cell systems. Currents measured using parallel planar arrays can be quantified using an appropriately equipped instrument such as the IonWorks Quattro (Molecular Devices) or the Qpatch (Sophion). The Quattro system can measure CFTR currents from either a single cell per recording well (HT configuration) or alternatively from a population of 64 cells per well (Population Patch Clamp PPC) (Finkel A, Wittel A, Yang N, Handran S, Hughes J, Costantin J. ‘Population patch clamp improves data consistency and success rates in the measurement of ionic currents.’ J Biomol Screen. 2006 August; 11(5):488-96).
Chinese hamster ovary (CHO) cells stably expressing the ΔF508-CFTR channel were used for IonWorks Quattro experiments. […]
Background: Patch clamp records ionic current or voltage across a cell membrane.
As usually defined, the EC50 is the concentration needed to bring the measured effect to its halfway point. Turning to `CC(O)(CNC(=O)c1nc(-c2ccc(Cl)cc2Cl)c(C(F)(F)F)cc1N)C(F)(F)F` (single isomer, unassigned) [Example 10, 3-Amino-6-(2,4-dichloro-phenyl)-5-trifluoromethyl-pyridine-2-carboxylic acid (3,3,3-trifluoro-2-hydroxy-2-methyl-propyl)-amide], the EC50 was found to be 112 nM.

In the case of `C[C@](O)(CNC(=O)c1nc(C(F)(F)F)c(C(F)(F)F)cc1N)C(F)(F)F` [Example 16, 3-Amino-5,6-bis-trifluoromethyl-pyridine-2-carboxylic acid ((S)-3,3,3-trifluoro-2-hydroxy-2-methyl-propyl)-amide], the EC50 was determined as 8 nM.

Regarding `Cc1ccc(-c2nc(C(=O)NCC(O)(C(F)(F)F)C(F)(F)F)c(N)cc2C(F)(F)F)cn1` [Example 14, 5-Amino-6′-methyl-3-trifluoromethyl-[2,3′]bipyridinyl-6-carboxylic acid (3,3,3-trifluoro-2-hydroxy-2-trifluoromethyl-propyl)-amide], the EC50 is 115 nM.

For `C[C@](O)(CNC(=O)c1nc(Br)c(C(F)(F)F)cc1N)C(F)(F)F` [Example 3, 3-Amino-6-bromo-5-trifluoromethyl-pyridine-2-carboxylic acid ((S)-3,3,3-trifluoro-2-hydroxy-2-methyl-propyl)-amide], the EC50 worked out at 55 nM.

For the compound `COc1nc(C(=O)NCC(O)C(F)(F)F)c(N)cc1C(F)(F)F` (centres unmarked) [Example 12, 3-Amino-6-methoxy-5-trifluoromethyl-pyridine-2-carboxylic acid (3,3,3-trifluoro-2-hydroxy-propyl)-amide], the EC50 amounted to 35 nM.

Turning to `CC(C)(O)CNC(=O)c1nc(-c2ccc(F)cc2)c(C(F)(F)F)cc1N` [Example 11, 3-Amino-6-(4-fluoro-phenyl)-5-trifluoromethyl-pyridine-2-carboxylic acid (2-hydroxy-2-methyl-propyl)-amide], the EC50 came out at 37 nM.

As for `C[C@](O)(CNC(=O)c1nc(-c2ccc(F)cc2)c(C(F)(F)F)cc1N)C(F)(F)F` [Example 7, 3-Amino-6-(4-fluoro-phenyl)-5-trifluoromethyl-pyridine-2-carboxylic acid ((S)-3,3,3-trifluoro-2-hydroxy-2-methyl-propyl)-amide], the half-maximal effective concentration (EC50) was 40 nM.

`CC(O)(CNC(=O)c1nc(-c2ccc(Cl)cc2Cl)c(C(F)(F)F)cc1N)C(F)(F)F` (single isomer, unassigned) [Example 9, 3-Amino-6-(2,4-dichloro-phenyl)-5-trifluoromethyl-pyridine-2-carboxylic acid (3,3,3-trifluoro-2-hydroxy-2-methyl-propyl)-amide]: the EC50 worked out at 90 nM.

Consider `C[C@@](O)(CNC(=O)c1nc(Br)c(C(F)(F)F)cc1N)C(F)(F)F` [Example 2, 3-Amino-6-bromo-5-trifluoromethyl-pyridine-2-carboxylic acid ((R)-3,3,3-trifluoro-2-hydroxy-2-methyl-propyl)-amide], for which the EC50 was found to be 15 nM.

Consider `COc1nc(C(=O)NC[C@@](C)(O)C(F)(F)F)c(N)cc1C(F)(F)F` (single isomer, unassigned) [Example 6], for which the EC50 came out at 426 nM.

Regarding `C[C@@](O)(CNC(=O)c1nc(C(F)(F)F)c(C(F)(F)F)cc1N)C(F)(F)F` [Example 17, 3-Amino-5,6-bis-trifluoromethyl-pyridine-2-carboxylic acid ((R)-3,3,3-trifluoro-2-hydroxy-2-methyl-propyl)-amide], the EC50 was 10 nM.

Turning to `COc1nc(C(=O)NCC(C)(O)C(F)(F)F)c(N)cc1C(F)(F)F` (racemic) [Example 4, 3-Amino-6-methoxy-5-trifluoromethyl-pyridine-2-carboxylic acid (3,3,3-trifluoro-2-hydroxy-2-methyl-propyl)-amide], the EC50 is 76 nM.

As to `C[C@@](O)(CNC(=O)c1nc(-c2ccc(F)cc2)c(C(F)(F)F)cc1N)C(F)(F)F` [Example 8, 3-Amino-6-(4-fluoro-phenyl)-5-trifluoromethyl-pyridine-2-carboxylic acid ((R)-3,3,3-trifluoro-2-hydroxy-2-methyl-propyl)-amide], the EC50 came out at 60 nM.

Regarding `Cc1ccc(-c2nc(C(=O)NCC(C)(O)C(F)(F)F)c(N)cc2C(F)(F)F)cn1` (single isomer, unassigned) [Example 15, 5-Amino-6′-methyl-3-trifluoromethyl-[2,3′]bipyridinyl-6-carboxylic acid (3,3,3-trifluoro-2-hydroxy-2-methyl-propyl)-amide], the EC50 came to 51 nM.
